Among the test systems are SNB-19; A549; OVCAR-5; SK-MEL-28; NCI-H23; U-251; SK-MEL-2; HOP-92; IGROV-1; M14; OVCAR-8; COLO 205; RXF 393; LXFL 529; SK-OV-3; HCT-15; LOX IMVI; A498.
What all share (experiment): inhibition of tumour cell growth, NCI panel, 48 h

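Each compound was tested at five concentrations against cells in 96-well plates for 48 hours. The concentration for 50% growth inhibition is given as GI50.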 The source made the active and inactive calls. Cut-off read from the data, not from the text of the source: active = GI50 up to about 1.1 µM and inactive = higher.

Consider `O=C1NC(O)n2c(=O)[nH]c(=O)n21` (centres undefined), for which the GI50 with SNB-19, in the assay with A549, with OVCAR-5, in the assay with SK-MEL-28, in the assay with NCI-H23 and with U-251 was > 100 µM (inactive) each time. Further, the GI50 in the assay with SK-MEL-2, in the assay with HOP-92, with IGROV-1, in the assay on M14, with OVCAR-8 and with COLO 205 was > 100 µM (inactive) throughout. In addition, the GI50 in the assay with RXF 393 was > 100 µM (inactive); with LXFL 529, > 100 µM (inactive); in the assay with SK-OV-3 it was > 100 µM (inactive); in the assay on HCT-15, above 100 µM; in the assay with LOX IMVI, > 100 µM (inactive).

As for `Clc1ccc(C2=NOC(C3CCCCC3)C2)cc1` (centres undefined), the GI50 in the assay on A549, with OVCAR-5, in the assay on SK-MEL-28, in the assay with NCI-H23, in the assay with U-251 and with SK-MEL-2 was > 100 µM (inactive) in each case. The GI50 in the assay on HOP-92, in the assay on IGROV-1, in the assay on M14, with OVCAR-8, in the assay on COLO 205 and in the assay with LXFL 529 was > 100 µM (inactive) in each case. Also, the GI50 in the assay on SK-OV-3 was > 100 µM (inactive); with HCT-15 it was above 100 µM; with A498, > 100 µM (inactive).

For the molecule `O=C1CCSC2=C1SCc1sccc12`, the GI50 with SNB-19, with A549, in the assay with OVCAR-5, in the assay on SK-MEL-28, with NCI-H23 and in the assay with SK-MEL-2 was > 100 µM (inactive) in each case. Besides, the GI50 in the assay on HOP-92, with IGROV-1, in the assay on M14, in the assay with OVCAR-8, in the assay on COLO 205 and with RXF 393 was > 100 µM (inactive) each time. For the same molecule, the GI50 in the assay with LXFL 529 is > 100 µM (inactive); in the assay on SK-OV-3, > 100 µM (inactive); in the assay with HCT-15, above 100 µM; in the assay on LOX IMVI, > 100 µM (inactive).

For `CCOc1cc2c(cnc3c4cc(OC)c(OC)cc4ccc23)cc1OC`, the GI50 in the assay on SNB-19, in the assay with A549, with OVCAR-5, in the assay on SK-MEL-28, in the assay on NCI-H23 and in the assay with U-251 was > 100 µM (inactive) in each case. In addition, the GI50 in the assay with SK-MEL-2, in the assay with IGROV-1, in the assay on M14, in the assay with OVCAR-8, with COLO 205 and in the assay on LXFL 529 was > 100 µM (inactive) in each case. The GI50 in the assay with SK-OV-3 was > 100 µM (inactive); in the assay with HCT-15, above 100 µM; in the assay with A498, > 100 µM (inactive).

Consider `O=C1CCCc2c(O)ccc(O)c21`, for which the GI50 in the assay on SNB-19, in the assay on A549, in the assay with OVCAR-5, with SK-MEL-28, with NCI-H23 and in the assay with U-251 was > 100 µM (inactive) throughout. Further, the GI50 with SK-MEL-2, in the assay with IGROV-1, in the assay with M14, with OVCAR-8, with COLO 205 and in the assay with RXF 393 was > 100 µM (inactive) in each case. Further, the GI50 with LXFL 529 is 44 µM (inactive); in the assay on SK-OV-3, > 100 µM (inactive); in the assay with HCT-15, above 100 µM; with A498, > 100 µM (inactive); in the assay with LOX IMVI, > 100 µM (inactive).

In the case of `CCOC(=O)[C@H]1CSC[C@@H](C(=O)OC)N1`, the GI50 in the assay with SNB-19, in the assay on A549, in the assay on OVCAR-5, in the assay with SK-MEL-28, with NCI-H23 and in the assay on U-251 was > 100 µM (inactive) in each case. Besides, the GI50 in the assay on SK-MEL-2, with IGROV-1, with M14, with OVCAR-8, with COLO 205 and in the assay with RXF 393 was > 100 µM (inactive) in each case. In addition, the GI50 in the assay with LXFL 529 is > 100 µM (inactive); with SK-OV-3 it was > 100 µM (inactive); in the assay on HCT-15, above 100 µM; in the assay with A498 it was > 100 µM (inactive); in the assay on LOX IMVI it was > 100 µM (inactive).

`O=c1cc(-c2ccccc2)[nH]c2c(F)ccc(F)c12`: the GI50 was 37.9 µM (inactive) with A549; 43.9 µM (inactive) in the assay with OVCAR-5; 59.8 µM (inactive) in the assay with SK-MEL-28; > 100 µM (inactive) with NCI-H23; 41.4 µM (inactive) in the assay with U-251; 16.4 µM (inactive) in the assay with SK-MEL-2. Further, the GI50 in the assay with HOP-92 is > 100 µM (inactive); with IGROV-1, > 100 µM (inactive); in the assay on M14, 35.4 µM (inactive); with OVCAR-8 it was 82 µM (inactive); in the assay on COLO 205, 48.1 µM (inactive); with RXF 393 it was 97.1 µM (inactive). Besides, the GI50 in the assay with LXFL 529 was 68.5 µM (inactive); in the assay with SK-OV-3 it was > 100 µM (inactive); with HCT-15 it was 26.7 µM; in the assay on LOX IMVI, 49.3 µM (inactive).

For the molecule `O=C(NCCCCCCCCCCCCNC(=O)c1cnc2ccccc2n1)c1cnc2ccccc2n1`, the GI50 in the assay on SNB-19 was 14.8 µM (inactive); in the assay on A549, 92.5 µM (inactive); in the assay with SK-MEL-28 it was > 100 µM (inactive); in the assay with U-251 it was 28.8 µM (inactive); in the assay on SK-MEL-2, > 100 µM (inactive); in the assay with IGROV-1, 54.3 µM (inactive). Also, the GI50 is > 100 µM (inactive) in the assay on M14; 9.4 µM (inactive) in the assay with OVCAR-8; > 100 µM (inactive) in the assay with COLO 205; 31.3 µM (inactive) in the assay on RXF 393; 33.7 µM (inactive) with LXFL 529; 22.6 µM (inactive) in the assay on SK-OV-3. In addition, the GI50 in the assay with HCT-15 was above 100 µM; with A498 it was 24.9 µM (inactive); in the assay on LOX IMVI, 39.8 µM (inactive).

For the molecule `O=C(CP(=O)(O)O)c1cccs1`, the GI50 in the assay on SNB-19, with A549, in the assay on OVCAR-5, in the assay on SK-MEL-28, in the assay on NCI-H23 and in the assay on U-251 was > 100 µM (inactive) throughout. Further, the GI50 with SK-MEL-2, in the assay on HOP-92, with IGROV-1, with M14, with OVCAR-8 and in the assay on COLO 205 was > 100 µM (inactive) throughout. The GI50 with LXFL 529 is > 100 µM (inactive); in the assay on SK-OV-3 it was > 100 µM (inactive); in the assay on HCT-15, above 100 µM; in the assay on A498 it was > 100 µM (inactive); in the assay on LOX IMVI, > 100 µM (inactive).

In the case of `COc1ccc2c(c1)CCc1cnn(C3OC(COC(C)=O)C(OC(C)=O)C(OC(C)=O)C3OC(C)=O)c1-2` (centres undefined), the GI50 in the assay on SNB-19 was > 100 µM (inactive); in the assay on A549, > 100 µM (inactive); in the assay on OVCAR-5, > 100 µM (inactive); in the assay with SK-MEL-28, 41.1 µM (inactive); in the assay with NCI-H23, 69 µM (inactive); in the assay with U-251 it was 22.5 µM (inactive). Besides, the GI50 with SK-MEL-2 was > 100 µM (inactive); in the assay on HOP-92, 27.3 µM (inactive); in the assay on M14, 56 µM (inactive); in the assay on OVCAR-8 it was > 100 µM (inactive); in the assay with COLO 205, 84.7 µM (inactive); in the assay with LXFL 529 it was 19.1 µM (inactive). Further, the GI50 in the assay with HCT-15 was 38.2 µM; with A498 it was > 100 µM (inactive); in the assay with LOX IMVI, > 100 µM (inactive).

`CCOC(=O)/C=C/c1ccccn1`: the GI50 in the assay on A549, in the assay on OVCAR-5, with SK-MEL-28, with NCI-H23, in the assay with U-251 and in the assay with SK-MEL-2 was > 100 µM (inactive) throughout. Also, the GI50 in the assay with HOP-92, in the assay on IGROV-1, with M14, in the assay on OVCAR-8, in the assay on COLO 205 and in the assay with LXFL 529 was > 100 µM (inactive) throughout. Moreover, the GI50 in the assay on SK-OV-3 was > 100 µM (inactive); in the assay on HCT-15 it was above 100 µM; in the assay on A498 it was > 100 µM (inactive); in the assay with LOX IMVI, > 100 µM (inactive).

Consider `CC(=O)Nc1ccc(/C=C2\N=C(c3ccccc3)OC2=O)cc1`, for which the GI50 with SNB-19, in the assay with A549, with OVCAR-5, in the assay with SK-MEL-28, in the assay on NCI-H23 and in the assay with U-251 was > 100 µM (inactive) in each case. The GI50 in the assay with SK-MEL-2 was > 100 µM (inactive); in the assay with HOP-92 it was 62.5 µM (inactive); with IGROV-1 it was > 31.6 µM (inactive); in the assay on M14, > 100 µM (inactive); in the assay on OVCAR-8, 6.32 µM (inactive); in the assay with COLO 205, > 100 µM (inactive). The GI50 with RXF 393 is 82.8 µM (inactive); with LXFL 529, > 100 µM (inactive); in the assay with SK-OV-3, > 100 µM (inactive); in the assay with HCT-15, 55.7 µM; in the assay on LOX IMVI, 80.2 µM (inactive).

Regarding `Cc1cccc(C)c1NC(=O)CCCC(=O)C1CCC/C1=N\NC(=O)C(=O)NN` (centres undefined), the GI50 in the assay on SNB-19, with A549, with OVCAR-5, with SK-MEL-28, with NCI-H23 and in the assay with U-251 was > 100 µM (inactive) each time. In addition, the GI50 with SK-MEL-2 was > 100 µM (inactive); in the assay with M14, > 100 µM (inactive); with OVCAR-8, > 100 µM (inactive); with COLO 205 it was > 100 µM (inactive); in the assay with RXF 393, 24.5 µM (inactive); with LXFL 529, > 100 µM (inactive). For the same molecule, the GI50 with SK-OV-3 was > 100 µM (inactive); in the assay with HCT-15 it was above 100 µM; in the assay on A498 it was > 100 µM (inactive); in the assay on LOX IMVI, > 100 µM (inactive).

Values taken from ChEMBL document CHEMBL1201862, “PubChem BioAssay data set” (2004).
